Measurements: US9605004B2, “Chemical compounds” (SYNGENTA LIMITED, priority 2013, dated 2017)

How the values were obtained:
[1] = tested on: a variety of test species; test: Pre-emergence herbicidal activity (Example 8a, Table 2); format: in vivo; set-up: key: 0 = no damage to plant, 5 = total damage to plant; conditions: application pre-emergence, rate 1000 g/ha, evaluated after 13 days
Procedure, shortened: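 Damage rated 13 days post-treatment on a 0-5 scale, 5 meaning total plant damage. Pots were sprayed pre-emergence, one day after sowing, with an acetone/water-derived aqueous spray containing 0.5% Tween 20. Plants grew under 14 h light, 65% humidity, 24/16 °C, watered twice daily.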

[2] = tested on: a variety of test species; test: Post-emergence herbicidal activity (Example 8b, Table 3); format: in vivo; conditions: application post-emergence, rate 1000 g/ha, evaluated after 13 days, scale 0-5; for Herbicidal damage score, ABUTH: Abutilon theophrasti; for Herbicidal damage score, ALOMY: Alopecurus myosuroides; for Herbicidal damage score, AMARE: Amaranthus retroflexus; for Herbicidal damage score, ECHCG: Echinochloa crus-galli; for Herbicidal damage score, SETFA: Setaria faberi; for Herbicidal damage score, ZEAMX: Zea mays
Procedure, shortened: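 Seeds were sown in standard soil and cultivated for 8 days under controlled glasshouse conditions. Seedlings were then sprayed with an aqueous solution of the formulated compound containing 0.5% Tween 20. Injury was rated after a further 13 days, where 5 indicated total damage.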

Row | Structure (SMILES) | Pre-emergence herbicidal activity, damage score ABUTH [1] | Pre-emergence herbicidal activity, damage score ALOMY [1] | Pre-emergence herbicidal activity, damage score AMARE [1] | Pre-emergence herbicidal activity, damage score ECHCG [1] | Pre-emergence herbicidal activity, damage score SETFA [1] | Pre-emergence herbicidal activity, damage score ZEAMX [1] | Herbicidal damage score, ABUTH [2] | Herbicidal damage score, ALOMY [2] | Herbicidal damage score, AMARE [2] | Herbicidal damage score, ECHCG [2] | Herbicidal damage score, SETFA [2] | Herbicidal damage score, ZEAMX [2]
1 | CCn1nc(N2C(=O)C(Cl)=C(C)C2O)c2c1C(C)(C)CC2 (stereo not drawn) [Compound E2] | 5 | 3 | 5 | 5 | 5 | 3 | 5 | 5 | 5 | 5 | 5 | 5
2 | CC1=C(Cl)C(=O)N(c2nn(C)c3c2CCCCC3(C)C)C1O (stereo not drawn) [Compound E3] | 4 | 2 | 5 | 4 | 2 | 1 | 4 | 4 | 5 | 5 | 4 | 2
3 | CC1=C(Cl)C(=O)N(c2nn(C)c3c2C2CCC3C2)C1O (stereo not drawn) [Compound E4] | 5 | 3 | 5 | 4 | 5 | 2 | 5 | 4 | 5 | 5 | 5 | 4
4 | CC1=C(Cl)C(=O)N(c2nn(C)c3c2CCCC3(C)C)C1O (stereo not drawn) [Compound E5] | 5 | 3 | 5 | 5 | 5 | 2 | 5 | 5 | 5 | 5 | 5 | 4
5 | CC1=C(Cl)C(=O)N(c2cc(C(C)(C)C)n(C)n2)C1OC(=O)OCC(C)C (stereo not drawn) [Compound F1] | 5 | 3 | 5 | 5 | 4 | 2 | 5 | 5 | 5 | 5 | 5 | 5
6 | CC1=C(Cl)C(=O)N(c2cc(C(C)(C)C)n(C)n2)C1OC(=O)Oc1ccccc1 (stereo not drawn) [Compound F2] | 5 | 3 | 5 | 5 | 4 | 3 | 5 | 5 | 5 | 5 | 5 | 5
7 | CC1=C(Cl)C(=O)N(c2cc(C(C)(C)C)n(C)n2)C1OC(=O)Oc1ccccc1 (stereo not drawn) [Compound F3] | 5 | 3 | 5 | 5 | 4 | 3 | 5 | 5 | 5 | 5 | 5 | 5
8 | CC1=C(Cl)C(=O)N(c2cc(C(C)(C)C)n(C)n2)C1OC(=O)OCC(C)C (stereo not drawn) [Compound F4] | 5 | 3 | 5 | 5 | 4 | 2 | 5 | 5 | 5 | 5 | 5 | 5
9 | CC1=C(Cl)C(=O)N(c2cc3n(n2)CCC3(C)C)C1O (stereo not drawn) [Compound G2] | 5 | 4 | 5 | 5 | 5 | 4 | 5 | 5 | 5 | 5 | 5 | 4
10 | CC1=C(Cl)C(=O)N(c2cc3n(n2)CCCC3(C)C)C1O (stereo not drawn) [Compound G4] | 5 | 4 | 5 | 5 | 5 | 3 | 5 | 5 | 5 | 5 | 5 | 5
11 | CC1=C(Cl)C(=O)N(c2cc3n(n2)CCC3(C)C)C1O (stereo not drawn) [Compound G8] | 5 | 4 | 5 | 5 | 5 | 4 | 5 | 5 | 5 | 5 | 5 | 4
12 | CC1=C(Cl)C(=O)N(c2cc3n(n2)CCCC3(C)C)C1O (stereo not drawn) [Compound G9] | 5 | 4 | 5 | 5 | 5 | 3 | 5 | 5 | 5 | 5 | 5 | 5
13 | CC1=C(Cl)C(=O)N(c2cc3n(n2)CCSC3(C)C)C1O (stereo not drawn) [Compound G10] | 5 | 3 | 5 | 5 | 4 | 4 | 5 | 5 | 5 | 5 | 5 | 4
14 | CC1=C(Cl)C(=O)N(c2cc3n(n2)CCS(=O)(=O)C3(C)C)C1O (stereo not drawn) [Compound G11] | 5 | 4 | 5 | 5 | 5 | 4 | 5 | 5 | 5 | 5 | 5 | 3
15 | COC1=C(C)C(O)N(c2cc(C(C)(C)C)n(C)n2)C1=O (stereo not drawn) [Compound H1, 1-(5-tert-butyl-1-methyl-pyrazol-3-yl)-2-hydroxy-4-methoxy-3-methyl-2H-pyrrol-5-one] | 5 | 4 | 5 | 5 | 5 | 4 | 5 | 5 | 5 | 5 | 5 | 4
16 | COC1=C(C)C(O)N(c2cc(C(C)(C)C)n(C)n2)C1=O (stereo not drawn) [Compound H2] |  | 4 |  |  |  | 4 |  |  |  |  |  | 4
